Earlier results in US20230405017A1, “METHODS OF USING RHO KINASE INHIBITORS TO TREAT FRONTOTEMPORAL DEMENTIA” (Woolsey Pharmaceuticals, Inc., priority 2020, published 2023).

Conditions: in vivo; 1-hydroxy (M3) metabolite of fasudil

- half-life: about 8 hours
Compound: O=S(=O)(c1cccc2c(O)nccc12)N1CCCNCC1 [M3]
